Laboratory results from patent US11135214B2, “Methods for enhancing the bio availability and exposure of a voltage-gated potassium channel opener” (priority 2018, dated 2021).

Columns and labels:
Type in all cases: in vivo, human
[1] = test system: spontaneous brain oscillations; test: TMS crossover study, resting state EEG
Source text: Sensor-level delta (2-4 Hz), theta (4-7 Hz), alpha (8-12 Hz) and beta (13-30 Hz) frequency activity was estimated using a Fast Fourier Transform (FFT) approach. Power of all frequencies between 2 and 30 Hz were estimated, using a frequency resolution of 0.5 Hz. A non-parametric dependent samples t-test based on a permutation approach (1500 permutations) was used to test differences between drug conditions on all EEG sensors.

cortical excitability [2] = test: TMS crossover study, global mean field power (GMFP); settings: 20 mg, pre-dose vs post-dose (FIG. 12)
Source text: Additional measures of cortical excitability including global mean field power were similarly impacted.

cortical excitability [3] = test: TMS crossover study, TMS-induced oscillations
Experimental: Before drug intake, at baseline, TMS induced an early increase of theta/alpha power followed by a beta power decrease (de-synchronization) and a final late response of increased beta power. The effects of the active compound on TMS-induced oscillations were then analysed by means of a cluster-based permutation analysis following the same procedure as adopted in the analysis of TEPs. Theta (4-7 Hz), alpha (8-12 Hz) and beta (13-30 Hz) TMS-induced oscillations were compared from 30 ms (the first time-frequency point considered artefact free) to 800 ms between drug conditions. This method was preferred instead of a predetermined set of time windows, given the absence of a consensus for time windows of interest to be used in the TMS induced oscillation analysis. Also, the present cluster-based statistics approach is appropriate for exploratory analyses, as it minimizes false-positives involved in testing multiple time-points.

[4] = at highest Compound A plasma concentration vs pre-dose

## Cc1cc(N2CCc3cc(F)ccc3C2)cc(C)c1NC(=O)CC(C)(C)C [Compound A, N-[4-(6-fluoro-3,4-dihydro-1H-isoquinolin-2-yl)-2,6-dimethylphenyl]-3,3-dimethylbutanamide]
[1]; 20 mg
  shift of power spectra of resting state EEGs: toward lower frequencies
[1]; 2 h after dosing vs pre-dose
  Modulation of resting state EEG bands, Delta: ↑ Delta
  Modulation of resting state EEG bands, Theta: ↑ Theta
[1]; 4 h after dosing vs pre-dose
  Modulation of resting state EEG bands, Beta: ↑ Beta
  Modulation of resting state EEG bands, Delta: ↑ Delta
  Modulation of resting state EEG bands, Theta: ↑ Theta
[1]; all available subjects, 2 h p<0.001, 4 h p<0.001
  resting state delta power vs pre-dose: significantly increased
[1]; all available subjects, 2 h p=0.005, 4 h p<0.001, 6 h p=0.009
  resting state beta band power vs pre-dose: significantly increased
[1]; all available subjects, 2 h p=0.006, 4 h two clusters p=0.008 and p=0.03
  resting state theta power vs pre-dose: significantly increased
[1]; [4]
  Modulation of resting state EEG bands, Beta: ↑ Beta
  Modulation of resting state EEG bands, Delta: ↑ Delta
  Modulation of resting state EEG bands, Theta: ↑ Theta
[1]; concentration analysis N=16, high plasma exposure, p<0.001
  resting state delta power vs pre-dose: increase in power
[1]; concentration analysis N=16, high plasma exposure, p=0.005
  resting state beta power vs pre-dose: increase in power
[1]; concentration analysis N=16, high plasma exposure, p=0.01
  resting state theta power vs pre-dose: increase in power
[1]; post-dose minus pre-dose, p<0.001
  resting state delta power compared to placebo: overall increase of power
[1]; post-dose minus pre-dose, p=0.003
  resting state beta power compared to placebo: overall increase of power
[1]; post-dose minus pre-dose, p=0.02
  resting state theta power compared to placebo: overall increase of power
[1]; subjects with drug exposure, 2 h p=0.001, 4 h p<0.001
  resting state delta power vs pre-dose: significantly increased
[1]; subjects with drug exposure, 2 h p=0.01, 4 h p<0.001
  resting state beta band power vs pre-dose: significantly increased
[1]; subjects with drug exposure, 2 h p=0.01, 4 h p=0.01
  resting state theta power vs pre-dose: significantly increased
Cortical excitability [2]
  global mean field power (GMFP): reduction of cortical excitability over time
Cortical excitability [3]; 2 h after dosing vs pre-dose
  Modulation of TMS-induced oscillations, Alpha: Not significant
  Modulation of TMS-induced oscillations, Beta: Not significant
  Modulation of TMS-induced oscillations, Theta: Not significant
Cortical excitability [3]; 4 h after dosing vs pre-dose
  Modulation of TMS-induced oscillations, Alpha: ↓ Alpha 250-390 ms
  Modulation of TMS-induced oscillations, Beta: ↑ Beta 250-330 ms
  Modulation of TMS-induced oscillations, Theta: ↓ Theta 30-180 ms
Cortical excitability [3]; all available subjects, 2 h post-dose
  theta TMS-induced oscillations: trend to suppress
Cortical excitability [3]; all available subjects, 4 h, p=0.03, 250 to 400 ms
  alpha TMS-induced oscillations: suppressed
Cortical excitability [3]; all available subjects, 6 h, p=0.03, 80 to 300 ms
  theta induced oscillations: significant depression
Cortical excitability [3]; all available subjects, 6 h, trend p=0.07, 270-390 ms
  alpha band TMS-induced oscillations: trend to suppress
Cortical excitability [3]; [4]
  Modulation of TMS-induced oscillations, Alpha: ↓ Alpha 220-400 ms
  Modulation of TMS-induced oscillations, Beta: ↑ Beta 210-310 ms
  Modulation of TMS-induced oscillations, Theta: ↓ Theta 30-390 ms
Cortical excitability [3]; concentration analysis N=16, p<0.001, 30 to 390 ms
  early theta TMS-induced oscillations: suppressed
Cortical excitability [3]; concentration analysis N=16, p=0.02, 220 to 400 ms
  alpha TMS-induced oscillations: suppressed
Cortical excitability [3]; concentration analysis N=16, p=0.04, 220 to 310 ms
  beta TMS-induced power: increased
Cortical excitability [3]; subjects with drug exposure, 2 h post-dose
  TMS-induced oscillations: did not modulate oscillations
Cortical excitability [3]; subjects with drug exposure, 4 h, p=0.03, 30 to 180 ms
  early theta TMS-induced oscillations: suppressed
Cortical excitability [3]; subjects with drug exposure, 4 h, p=0.03, 250 to 390 ms
  alpha TMS-induced oscillations: suppressed
Cortical excitability [3]; subjects with drug exposure, 4 h, p=0.04, 250 to 330 ms
  beta TMS-induced desynchronization: increased
Cortical excitability [3]; subjects with drug exposure, 6 h, p<0.001, 30 to 280 ms
  theta induced oscillations: significant depression
